The values that follow come from patent US20050124032A1 (priority 2002, published 2005).

Structures are written as SMILES.

The assay relates to X. dendrorhous Y-2476. The format is cell-based, Xanthophyllomyces dendrorhous.

Take `CC1=C(C)C(=O)C(C)=C(C)C1=O` [duroquinone]: the Reduction of growth is recorded as 15-25%.
